One experiment concerns the target T1, REV-ERBα (Homo sapiens, UniProt P20393).
T1 construct: expressed in transfected cells; host or cells: HEK293T
T1 sequence (P20393 1-614): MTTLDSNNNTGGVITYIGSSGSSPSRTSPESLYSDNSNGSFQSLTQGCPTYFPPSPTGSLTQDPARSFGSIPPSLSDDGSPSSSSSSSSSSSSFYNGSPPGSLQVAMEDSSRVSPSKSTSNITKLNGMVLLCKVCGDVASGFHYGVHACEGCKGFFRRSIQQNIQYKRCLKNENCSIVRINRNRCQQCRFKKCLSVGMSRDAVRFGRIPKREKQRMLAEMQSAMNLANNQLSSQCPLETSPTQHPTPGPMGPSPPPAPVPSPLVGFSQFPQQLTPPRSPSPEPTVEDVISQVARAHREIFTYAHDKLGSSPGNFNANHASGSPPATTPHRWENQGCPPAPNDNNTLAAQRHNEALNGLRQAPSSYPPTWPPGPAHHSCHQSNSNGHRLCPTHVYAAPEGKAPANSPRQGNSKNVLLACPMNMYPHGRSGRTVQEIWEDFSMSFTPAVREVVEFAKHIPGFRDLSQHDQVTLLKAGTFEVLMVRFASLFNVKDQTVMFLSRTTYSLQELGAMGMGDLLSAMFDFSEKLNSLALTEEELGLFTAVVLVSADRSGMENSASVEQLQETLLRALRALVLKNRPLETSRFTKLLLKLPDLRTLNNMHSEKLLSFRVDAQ
Description: Dual-luciferase Bmal-luc reporter assay in HEK293T cells transfected with REV-ERBα. In kind it is cell-based. The following applies: 10 μM. Here is the method: HEK293T cells were defrosted and maintained in DMEM supplemented with 10% FCS and 1% P/S at 37° C. and 5% CO2. Cells were plated in a 24-well plate (7·10^4 cells/well in 0.5 mL of DMEM+10% FCS). 24 h after seeding, cells were transfected with 100 ng of Bmal-luc, 10 ng of pRL-CMV Renilla as an internal control and 10 ng of REV-ERBα or the empty vector pcDNA3 as a control. All conditions were equalled to a total of 400 ng of DNA by using BSM. In order to prepare transfection samples, calculated amounts of DNA needed for each condition were prepared in Opti-MEM and Fugene was added in a 5:2 Fugene:DNA ratio. Mixtures were vortexed to assure homogeneity and left to incubate for 15 min at rt. Afterwards, each DNA mix was transferred into the 24-well plate containing the pre-seeded cells, with each condition repeated by triplicate. 5 h after transfection, cells were treated with compounds 2-12, AG1-AG5 or DMSO as vehicle. Solution of the compounds in DMEM were prepared at a double concentration than the final desired one, and 0.5 mL of these solutions were added to each well. 24 h after transfection, cells were lysed and luciferase activity was measured using Dual-Luciferase Reporter Assay System E2920 (Promega). To perform the experiment, cells were lysed by adding 50 μL of passive lysis buffer (PLB) (1:5 dilution) to each well and gently stirring for 30 min. Each cell lysate was transferred to a 96-well plate. 50 μL of Dual-Glo reagent were dispensed into each well, tapped gently to mix and incubated for 10 min. Luminescence of firefly luciferase was measured using a Tecan VICTOR Light Luminescent counter equipment. Then, 50 μL of Stop&Glo reagent were dispensed to quench firefly activity and activate Renilla luciferase, incubated for 10 min and measured. Firefly activity was normalized to Renilla luciferase activity. Results were analysed using Welch's corrected parametric t-test.
The method of Example 2 was repeated using Compounds 70 to 72 (generated as described in Example 1). Compounds 4, 7 and 11 (tested in Example 2) were used as a positive control for REV-ERB inhibitory activity, agonist compound AG2 (also tested in Example 2) and DMSO were also tested as comparators.
The method of Example 2 was repeated using Compounds 64 to 66, 69 and 70 to 73 (generated as described in Example 1). Once again, Compounds 4, 7 and 11 (tested in Example 2) were used as a positive control for REV-ERB inhibitory activity, agonist compound AG2 (also tested in Example 2) and DMSO were also tested as comparators.
The method of Example 2 was repeated using Compounds 16 to 19, 27, 28 and 44 (generated as described in Example 1). Once again, Compounds 4, 7 and 11 (tested in Example 2) were used as a positive control for REV-ERB inhibitory activity, agonist compound AG2 (also tested in Example 2) and DMSO were also tested as comparators.

Another experiment concerns NK cells. Description: NK cells development assay (Lin− bone marrow cells co-cultured with OP9 stromal cells, flow cytometry). In kind it is cell-based, mouse. On the procedure: Mice. All mice used in this study were wild type on a C57BL/6 background, between six and twelve weeks old. All animal husbandry and experimental procedures were performed according to UK Home Office regulations and institute guidelines.
OP9 cell line and cell culture. OP9 is a stromal cell line from mouse bone marrow known to support lymphocyte differentiation of hematopoietic progenitors when co-culturing with them. OP9-GFP cells were cultured in Iscove's Modified Dulbecco's Medium (IMDM) (Sigma-Aldrich) supplemented with 20% Fetal Bovine Serum (FBS) and 1% Penicillin/[…] (P/S). They were split into 24-well plates with 2500 cells per well two days before transferring Lin− cells onto them. Cells were kept in a 5% CO2 humidified atmosphere at 37 QC. Lineage negative cells isolation from bone marrow. Mouse leg and hip bones were crushed in Phosphate Buffered Saline (PBS) with 2% FBS to release bone marrow cells. Cell suspension was filtered through a […] strainer, topped up to 40 mL with PBS+2% FBS and centrifuged at 500×g for 4 minutes. Cells were resuspended in 2 mL PBS+2% FBS and stained with phycoerythrin (PE)-conjugated cocktail (20 μL anti-B220 (RA3/6B2), 20 μL anti-CD2 (RM2-5), 20 μL anti-Ter119 (TER119), 20 μL anti-NK1.1 (PK136), 5 μL anti-CD11b (M1/70) and 5 μL Gr1 (RB6-8C5) antibodies (all from eBioscience) for 5 minutes at 4° C. Then, cells were washed, centrifuged and incubated with anti-PE Microbeads (Miltenyi) for 15 minutes at 4° C. Next, cells were washed with PBS and passed through LD column (Miltenyi), enabling the negative selection of unstained Lin− cells that flowed through the column. 50 μL of cells were taken to check the purity after depletion using flow cytometry. In vitro NK cell development from lineage negative cells. Lin− cells were plated in 24-well plates with 5×10^5 cells in 1 mL of Dulbecco's Modified Eagle Medium (DMEM) (Sigma-Aldrich) supplemented with 10% embryonic stem cell-qualified FBS (ES-FBS), 1% P/S, 50 μM β-Mercaptoethanol (β-ME), 10 ng/ml Flt3-ligand (Flt3L) (R&D Systems), 10 ng/mL IL-7 (R&D Systems) and 100 ng/mL stem cell factor (SCF) (R&D Systems) per well and cultured for 2 days. Cells were transferred for co-culture with OP9-GFP stromal cells in 24-well plates with 3×10^4 cells in 1 mL of Alpha MEM (Sigma-Aldrich) supplemented with 20% ES-FBS, 1% P/S, 50 μM β-ME and 10 ng/mL IL-15 (R&D Systems) per well and cultured for […]. Compounds were added on day 2, at the same time as cells were transferred together with OP9. Supernatant was removed on day 5, and new media was added with compound. Cells were kept in a 5% CO2 humidified atmosphere at 37° C.
Flow cytometry. After being cultured for 7 days, cells were harvested, filtered through 40 μm strainers to remove OP9 cells and washed with PBS. After centrifuging at 500×g for 5 minutes at 4° C., they were stained with appropriate fluorochrome conjugated antibodies with 1:300 dilution in 100 μL of fluorescent activated cell sorting (FACS) buffer (PBS with 1% BSA) for 15 minutes at 4° C. in the dark. Antibodies include CD3(e450), NK1.1(APC), NKp46(Percp e710) and PI, all of which are anti-mouse and from eBioscience. Cells were then washed in 1 ml FACS buffer, centrifuged and resuspended in 300 μL FACS buffer. Compensation was set up using Anti-Mouse Ig, k and Anti-Rat/Hamster Ig, k Compensation Particles Set (BDTM Combead). Flow cytometry analysis was carried out using BD LSRFortessa™ cell analyser (Becton Dickinson Bioscience) and data analysis was performed using FlowJo.
The method of Example 7 was repeated using 5 μM of Compounds 7 and 11, and 5 and 10 μM of Compound 72.
A general note: A flow cytometer gives signals particle by particle.

Where [1] appears, read: FIG. 7, three independent experiments in triplicate.
The mark [2] stands for this setting: FIG. 3, three independent experiments in triplicate, comparison with SR8278.
Where [3] appears, read: FIG. 4, two independent experiments in triplicate, comparison with SR8278.
[4] abbreviates: 5 μM, FIG. 10, compared with SR8278.
Setting [5] is: 10 μM, FIG. 9, compared with SR8278.
[6] abbreviates: FIG. 10 legend, concentration not stated there (5 μM for 7 and 11, 5 and 10 μM for 72), compared with SR8278 and AG2.

The values below come from patent US12377119B2, “Natural killer cells” (IMPERIAL COLLEGE INNOVATIONS LIMITED, priority 2018, dated 2025).

“Also recorded” adds a separate entry of the source.

Turning to `CCOC(=O)C1Cc2ccccc2CN1C(=O)c1ccnc(C)c1` (racemic) [Compound 28], at REV-ERBα (setting [1]), the “Effect on REV-ERBα activity (Bmal-luc luciferase expression)” value (“Effect on REV-ERBα activity” for short) is reported as “Inhibitory effect on REV-ERB was observed; also recorded: significant antagonistic activity”.

`CCOC(=O)C1Cc2ccccc2CN1C(=O)c1scnc1C` (racemic) [Compound 12, Ethyl 2-(4-methylthiazole-5-carbonyl)-1,2,3,4-tetrahydrolsoquinoline-3-carboxylate]: the “Effect on REV-ERBα activity” value on REV-ERBα (setting [2]) is given as “significant increase in luciferase expression compared with SR8278; also recorded: significant antagonistic activity”.

As to `CCOC(=O)C1Cc2ccccc2CN1C(=O)c1cccnc1F` (racemic) [Compound 27], the “Effect on REV-ERBα activity” value at REV-ERBα (setting [1]) is on record as “Inhibitory effect on REV-ERB was observed; also recorded: significant antagonistic activity”.

Regarding `CCOC(=O)C1Cc2ccccc2CN1C(=O)c1ocnc1C` (racemic) [Compound 11, Ethyl 2-(4-methyloxazole-5-carbonyl)-1,2,3,4-tetrahydrolsoquinoline-3-carboxylate], the entries for the “Effect on REV-ERBα activity” value at REV-ERBα (setting [2]), on REV-ERBα (setting [3]) and at REV-ERBα (setting [1]) were “significant increase in luciferase expression compared with SR8278; also recorded: significant antagonistic activity”, “significant antagonistic activity” and “significant antagonistic activity”, respectively. The “Total number of NK cells” value is “significant increase in the total number of NK cells compared with SR8278” with NK cells (setting [4]), “increase in the total number of NK cells compared with SR8278” in the experiment on NK cells (setting [5]) and “significant increase in NK cell number” in the experiment with NK cells (setting [6]).

For `CCOC(=O)C1Cc2ccccc2CN1C(=O)c1ccno1` (racemic) [Compound 8, Ethyl 2-(isoxazole-5-carbonyl)-1,2,3,4-tetrahydrolsoquinoline3-carboxylate], at REV-ERBα (setting [2]), the “Effect on REV-ERBα activity” value was “significant increase in luciferase expression compared with SR8278; also recorded: significant antagonistic activity”.

Regarding `CCOC(=O)C1Cc2ccccc2CN1C(=O)c1ccco1` (racemic) [Compound 7, Ethyl 2-(furan-2-carbonyl)-1,2,3,4-tetrahydrolsoquinoline-3-carboxylate], the “Effect on REV-ERBα activity” value is on record as “significant increase in luciferase expression compared with SR8278; also recorded: significant antagonistic activity” on REV-ERBα (setting [2]), “significant antagonistic activity” on REV-ERBα (setting [3]) and “significant antagonistic activity” at REV-ERBα (setting [1]). The figures for the “Total number of NK cells” value with NK cells (setting [4]), in the experiment with NK cells (setting [5]) and in the experiment with NK cells (setting [6]) were “significant increase in the total number of NK cells compared with SR8278”, “significant increase in NK cell number” and “significant increase in NK cell number”, respectively.

With `CSc1ccc(C(=O)N2Cc3ccccc3CC2COc2ccc(OC(C)(C)C)cc2)s1` (centres unmarked) [AG5], the “Effect on REV-ERBα activity” value at REV-ERBα (setting [2]) was “agonists”; on REV-ERBα (setting [1]), “agonist”.

For `CCOC(=O)C1Cc2ccccc2CN1C(=O)c1cccc2ccccc12` (centres unmarked) [AG1], the “Effect on REV-ERBα activity” value at REV-ERBα (setting [2]) is given as “agonists”.

Take `CCOC(=O)CN(Cc1ccccc1)C(=O)c1ccco1` (racemic) [Compound 72]: the “Effect on REV-ERBα activity” value at REV-ERBα (setting [3]) is recorded as “inhibitory effect on REV-ERB greater than that obtained using SR8278; also recorded: significant antagonistic activity”. Also, the “Total number of NK cells” value is “significant increase in the total number of NK cells compared with SR8278” in the experiment with NK cells (setting [4]); “significant increase in the total number of NK cells compared with SR8278” with NK cells (10 μM, FIG. 10, compared with SR8278); “significant increase in NK cell number” in the experiment on NK cells (setting [6]).
